# Test results taken from PMC4815073, “Targeting of tubulin polymerization and induction of mitotic blockage by Methyl 2-(5-fluoro-2-hydroxyphenyl)-1H-benzo[d]imidazole-5-carboxylate (MBIC) in human cervical cancer HeLa cell” (Journal of Experimental & Clinical Cancer Research : CR, 2016).
# What was measured:
# HeLa cells [1] = assay: Annexin V-FITC/PI apoptosis detection by flow cytometry; type: cell-based, human; conditions: 24 h
# Procedure: Apoptosis was detected using BD Pharmingen Annexin V-FITC Apoptosis Detection Kit as per manufacturer’s protocol. Briefly, cells were seeded in 25 cm^2 culture flasks (10 × 10^5 cells/flask) and were treated in 3 different MBIC concentrations for 24 and 48 h. Later, treated cells were harvested and washed with 1 ml of 1X Phosphate Buffered-Saline (PBS) before adding 200 μl 1X annexin-binding buffer. 10 μl of annexin V-FITC and 10 μl of PI were added to each 200 μl of cell suspension. Cells were then incubated in total darkness for 15 min at room temperature. 500 μl of 1X annexin-binding buffer was added just before the flow cytometry analysis.
# [2] = test system: human cancer cell lines (HCT-116, A549, HepG-2, HeLa); assay: MTT cytotoxicity assay, human cancer cell lines taken together; type: cell-based
# Text: The human cervical cancer cell-line, HeLa (CCL-2.2; ATCC, Manassas, VA), HCT-116 (CCL-247; ATCC, Manassas, VA), A549 (CCL-185; ATCC, Manassas, VA), HepG-2 (HB-8065; ATCC, Manassas, VA) and WRL-68 (CL-48; ATCC, Manassas, VA), were obtained from American Type Culture Collection (ATCC). HeLa, A549, HepG2 and WRL68 cells were maintained in Dulbecco’s Modified Eagle Medium (DMEM, Life Technologies, Inc, Rockville, MD). HCT-116 was obtained in McCoy’s 5a Medium Modified (Life Technologies, Inc, Rockville, MD) supplemented with 10 % fetal bovine serum and 1 % penicillin/streptomycin. Cells were incubated at 37 °C in a humidified cell culture 5 % CO2 incubator. Cells were passaged until reaching 70-80-% confluency for experimental purposes.
# Cytotoxicity of MBIC was estimated by MTT assay. Briefly, 1 × 10^4 cells/well were seeded in a 96-well plate and incubated at 37 °C in 5 % CO2. After 24 h, cells were treated with different concentrations (0.02, 0.04, 0.1, 0.2, 0.4, 0.8, 1.5, 3, 6, 12, 25, 50 μM) of MBIC. 0.01 % DMSO was used as vehicle control. Cells were incubated for 24 and 48 h at 37 °C. […] The colorimetric assay was quantified at 570 nm wavelength using Chameleon V microplate reader (Hidex, Turku, Finland). The anti-proliferation activity of MBIC was expressed as an IC50 value. The percentage of cell viability was calculated as described previously.
# HeLa cells [3] = assay: Cell cycle analysis (PI, flow cytometry); type: cell-based, human; conditions: 24 h
# Procedure: Cell cycle analysis was performed using propidium iodide (PI). Briefly, cells were seeded in a 25 cm^2 flask, then 60 % confluent cells were treated with MBIC for 24 and 48 h. Following incubation, the cells were harvested and spun down for 5 min at 2000 rpm. The supernatant was removed and cells were then fixed in 1 ml of ice-cold 70 % ethanol overnight at -80 °C. Fixed cells were washed with 1 ml 1X PBS and stained in 500 μl of PI containing 5 μg/ml DNase-free RNase for 30 min at room temperature in total darkness. DNA content of the cell was analyzed by flow cytometry. The percentage of G0-G1, S and G2-M cells were then calculated using Fluorescence-activated cell sorting (FACS) software (BD Biosciences).
smiles,measurement,setting,value
"COC(=O)c1ccc2[nH]c(-c3cc(F)ccc3O)nc2c1 [MBIC, Methyl 2-(5-fluoro-2-hydroxyphenyl)-1H-benzo[d]imidazole-5-carboxylate]","late apoptotic cells (Q2, annexin V+ PI+)",HeLa cells [1]; 0.21 μM,44.8 ± 2.3%
same,"late apoptotic cells (Q2, annexin V+ PI+)",HeLa cells [1]; 1 μM,74.8 ± 4.2%
same,IC50,[2],< 5 µM
same,G2-M cell population,HeLa cells [3]; 0.21 μM,26.7 ± 6.3%
same,G2-M cell population,HeLa cells [3]; 1 μM,42.8 ± 6.4%
